What was measured:
[1] = Competitive inhibition of Escherichia coli thymidylate synthetase using 5-[3H]-dUMP as substrate after 7 mins by scintillation counting analysis
[2] = Competitive inhibition of calf thymus thymidylate synthetase using 5-[3H]-dUMP as substrate after 10 mins by scintillation counting analysis; parameters: species or system Bos taurus
[3] = Competitive inhibition of thymidylate synthetase in mouse Ehrlich ascites tumor cells using 5-[3H]-dUMP as substrate after 7 mins by scintillation counting analysis
Bos taurus [4] = species: Bos taurus; test: Ratio of Ki to Km for calf thymus thymidylate synthetase
Mus musculus [5] = species: Mus musculus; test: Ratio of Ki to Km for thymidylate synthetase in mouse Ehrlich ascites tumor cells
[6] = Selectivity ratio of Ki/Km for calf thymus thymidylate synthetase to Ki/Km for thymidylate synthetase in mouse Ehrlich ascites tumor cells
Bos taurus [7] = species: Bos taurus; test: Irreversible inactivation of calf thymus thymidylate synthetase assessed as enzyme activity using dUMP as substrate at 0.33 mM preincubated for 3 hrs in absence of cofactor tetrahydrofolate
Bos taurus [8] = species: Bos taurus; test: Irreversible inactivation of calf thymus thymidylate synthetase assessed as enzyme activity using dUMP as substrate at 0.33 mM preincubated for 3 hrs in presence of cofactor tetrahydrofolate
Mus musculus [9] = species: Mus musculus; test: Irreversible inactivation of thymidylate synthetase in mouse Ehrlich ascites tumor cells assessed as enzyme activity using dUMP as substrate at 0.33 mM preincubated for 3 hrs in absence of cofactor tetrahydrofolate
Mus musculus [10] = species: Mus musculus; test: Irreversible inactivation of thymidylate synthetase in mouse Ehrlich ascites tumor cells assessed as enzyme activity using dUMP as substrate at 0.33 mM preincubated for 3 hrs in presence of cofactor tetrahydrofolate
[11] = Non-competitive inhibition of calf thymus thymidylate synthetase using 5-[3H]-dUMP as substrate after 10 mins by scintillation counting analysis; parameters: species or system Bos taurus
[12] = Inhibition of Escherichia coli thymidylate synthetase using 5-[3H]-dUMP as substrate
[13] = Retardation factor of the compound; assay type: physicochemical

Ki/Km (Bos taurus [4])	Ki/Km (Mus musculus [5])	Selectivity ratio [6]	Activity (Bos taurus [7]) [%]	Activity (Bos taurus [8]) [%]	Activity (Mus musculus [9]) [%]	Activity (Mus musculus [10]) [%]	Rf [13]	Compound	Ki [1] [µM]	Ki [2] [µM]	Ki [3] [µM]	Ki [11] [µM]	Ki [12] [µM]
3.5	4.7	0.7	–	–	–	–	–	COCc1cn([C@H]2C[C@H](O)[C@@H](COP(=O)(O)O)O2)c(=O)[nH]c1=O	42	32	19	–	–
14	10	1.4	–	–	–	–	0.55	C=CCc1cn([C@H]2C[C@H](O)[C@@H](COP(=O)(O)O)O2)c(=O)[nH]c1=O	135	130	40	–	–
0.44	0.15	3	–	–	–	–	–	O=c1[nH]c(=O)n([C@H]2C[C@H](O)[C@@H](COP(=O)(O)O)O2)cc1CO	4	4	0.6	–	10.5
3.6	3.5	1	104	85	94	120	0.45	O=c1[nH]c(=O)n([C@H]2C[C@H](O)[C@@H](COP(=O)(O)O)O2)cc1CC1CO1 (stereo not given in full)	25	33	14	–	–

Continued, compound first:

Compound	Ki/Km (Bos taurus [4])	Ki/Km (Mus musculus [5])	Selectivity ratio [6]	Activity (Bos taurus [7]) [%]	Activity (Bos taurus [8]) [%]	Activity (Mus musculus [9]) [%]	Activity (Mus musculus [10]) [%]	Rf [13]	Ki [1] [µM]	Ki [2] [µM]	Ki [3] [µM]	Ki [11] [µM]	Ki [12] [µM]
O=c1[nH]c(=O)n([C@H]2C[C@H](O)[C@@H](COP(=O)(O)O)O2)cc1COCc1ccccc1	4.6	2.2	2	–	–	–	–	–	25	42	9	–	–
[N-]=[N+]=NCc1cn([C@H]2C[C@H](O)[C@@H](COP(=O)(O)O)O2)c(=O)[nH]c1=O	2.3	1.2	1.9	77	83	60	87	–	18	21	5	–	–
O=Cc1cn([C@H]2C[C@H](O)[C@@H](COP(=O)(O)O)O2)c(=O)[nH]c1=O	0.01	0.02	0.5	–	–	–	–	–	0.1	–	0.08	0.09	0.013
CC(=O)c1cn([C@H]2C[C@H](O)[C@@H](COP(=O)(O)O)O2)c(=O)[nH]c1=O	8.1	5.5	1.5	–	–	–	–	–	64	73	22	–	–

From ChEMBL document CHEMBL3272153, “Synthetic inhibitors of Escherichia coli, calf thymus, and Ehrlich ascites tumor thymidylate synthetase” (J Med Chem, 1976)
